Results: US20160151285A1, “METHOD TO PRODUCE SLOW RELEASE DELIVERY CARRIER LIPID NANOPARTICLES OF DIFFERENT LOG P VALUE” (University of Malaya, priority 2014, published 2016)

Tests used:
[1] = In vitro release study, Automated Franz Diffusion Cell System, Higuchi model fit; assay type: physicochemical; conditions: 37° C., PBS pH7.4, 24 hours, regenerated cellulose membrane
Protocol: Four different samples were run in 6 diffusate chamber volume of 4 ml […] PBS solution at pH7.4, with 0.6362 cm^2 effective diffusion area, under 400 rpm stirring and circulation of water bath at 37±1° C. throughout the experiments. Approximately 500 mg of each sample was loaded on the regenerated cellulose membrane surface (5000 Da molecular weight cut-off) in the retentate compartment, which was pre-soaked overnight, to be evaluated for 24 hours. At predetermined intervals, samples were withdrawn to be determined spectrophotometrically for the drug content and replaced with fresh receiving medium. The calculations are done based on average of six measurements from six different retentate compartments.

[2] = log P of the compound used / encapsulated; cited from earlier work

SMILES | Slope (release rate, Higuchi Model) ([1]; In NLC (NLC-1, NLC-2, NLC-3)) | Slope (release rate, Higuchi Model) ([1]; In cream (C1, C2, C3)) | Slope (release rate, Higuchi Model) ([1]; In solution (A1, A2, A3)) | Log P [2]
O=S(=O)(O)c1cc2cc(S(=O)(=O)O)c(N=Nc3ccccc3[As](=O)(O)O)c(O)c2c(O)c1N=Nc1ccccc1[As](=O)(O)O [Arsenazo III, arsenazo III] | 8.93 | 11.48 | 19.25 | 0.49
CN(C)c1ccc2cc3ccc(N(C)C)cc3nc2c1 [Acridine orange, acridine orange] | 0.43 | 4.12 | 19.15 | –
